This is an account of results in US7981903B2, “2-[2-{phenylamino}-1H-pyrrolo[2,3-D]pyrimidin-4-yl)amino] benzamide derivatives as IGF-1R inhibitors for the treatment of cancer” (GlaxoSmithKline LLC, priority 2007, dated 2011).

The target in this experiment is T1, NIH-3T3 cells overexpressing human IR (Homo sapiens, UniProt P06213).
T1 construct: expressed in transfected cells; host or cells: NIH-3T3 (mouse fibroblasts)
Description: IR cellular autophosphorylation (DELFIA). In kind it is cell-based. The settings on record: 2 h compound, insulin 3 ug/ml for 15 minutes, IC50 category. The essentials: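 Receptor autophosphorylation measured by DELFIA, capturing IGF-1R or IRβ and detecting with europium anti-pTyr, reported as percent of IGF-1- or insulin-stimulated signal. Compounds (30 uM to 1.5 nM) added 2 h before ligand, then 15 min stimulation (IGF-1 30 ng/ml or insulin 3 ug/ml).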

T1 sequence (P06213 28-1382): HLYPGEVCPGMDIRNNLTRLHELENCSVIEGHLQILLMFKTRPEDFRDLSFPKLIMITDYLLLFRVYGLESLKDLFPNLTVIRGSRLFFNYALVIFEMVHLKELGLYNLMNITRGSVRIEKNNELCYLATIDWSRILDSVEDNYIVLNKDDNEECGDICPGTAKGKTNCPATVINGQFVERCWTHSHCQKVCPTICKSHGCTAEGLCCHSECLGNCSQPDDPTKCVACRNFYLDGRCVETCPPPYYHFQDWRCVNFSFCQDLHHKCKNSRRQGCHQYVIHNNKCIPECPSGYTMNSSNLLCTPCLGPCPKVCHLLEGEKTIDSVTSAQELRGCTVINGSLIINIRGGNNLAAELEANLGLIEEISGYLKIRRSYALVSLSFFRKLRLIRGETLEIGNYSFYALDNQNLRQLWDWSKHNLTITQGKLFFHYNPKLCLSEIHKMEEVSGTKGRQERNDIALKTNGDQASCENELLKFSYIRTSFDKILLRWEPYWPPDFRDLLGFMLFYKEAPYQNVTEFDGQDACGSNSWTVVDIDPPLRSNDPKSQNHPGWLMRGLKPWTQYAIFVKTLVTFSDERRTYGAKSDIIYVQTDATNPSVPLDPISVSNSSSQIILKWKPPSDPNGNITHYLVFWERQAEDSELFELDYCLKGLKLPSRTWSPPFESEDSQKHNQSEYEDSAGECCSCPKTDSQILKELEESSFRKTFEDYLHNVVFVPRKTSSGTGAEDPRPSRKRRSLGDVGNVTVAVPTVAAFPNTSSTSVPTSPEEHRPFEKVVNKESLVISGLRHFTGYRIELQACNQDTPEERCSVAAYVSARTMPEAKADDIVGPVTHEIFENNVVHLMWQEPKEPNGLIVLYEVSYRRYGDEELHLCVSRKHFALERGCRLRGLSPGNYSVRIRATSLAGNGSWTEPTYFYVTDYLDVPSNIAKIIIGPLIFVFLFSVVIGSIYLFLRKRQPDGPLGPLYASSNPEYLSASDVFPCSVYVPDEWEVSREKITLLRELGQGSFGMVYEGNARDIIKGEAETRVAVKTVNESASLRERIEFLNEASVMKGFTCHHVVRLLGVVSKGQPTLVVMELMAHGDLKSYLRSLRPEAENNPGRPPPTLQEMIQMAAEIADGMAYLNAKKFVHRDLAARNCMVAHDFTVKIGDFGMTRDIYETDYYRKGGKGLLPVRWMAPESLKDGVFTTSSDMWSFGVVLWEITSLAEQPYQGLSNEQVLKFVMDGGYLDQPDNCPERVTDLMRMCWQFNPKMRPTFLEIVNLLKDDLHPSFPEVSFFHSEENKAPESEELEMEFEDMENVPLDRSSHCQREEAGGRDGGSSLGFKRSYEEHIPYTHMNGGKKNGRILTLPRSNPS

For orientation: IC50 means the concentration that gives 50% inhibition. A higher IC50 goes with weaker potency in that assay. Take `COc1cc2c(cc1Nc1nc(Nc3cccc(F)c3C(=O)NCC(C)C)c3cc[nH]c3n1)N(C(=O)CN(C)C)CC2` [Example 157, 2-[(2-{[1-(N,N-dimethylglycyl)-5-(methyloxy)-2,3-dihydro-1H-indol-6-yl]amino}-1H-pyrrolo[2,3-d]pyrimidin-4-yl)amino]-6-fluoro-N-(2-methylpropyl)benzamide]: the IC50 was in the range of 100 to 500 nM. The result for `CCN(C)CC(=O)N1CCc2cc(OC)c(Nc3nc(Nc4cccc(F)c4C(N)=O)c4cc[nH]c4n3)cc21` [Example 166, 2-[(2-{[1-(N-ethyl-N-methylglycyl)-5-(methyloxy)-2,3-dihydro-1H-indol-6-yl]amino}-1H-pyrrolo[2,3-d]pyrimidin-4-yl)amino]-6-fluorobenzamide] reads less than 100 nM. Turning to `COc1cc(N2CCN(C(C)=O)CC2)ccc1Nc1nc(Nc2cc(F)c(F)cc2C(N)=O)c2cc[nH]c2n1` [Example 103, 2-[(2-{[4-(4-acetyl-1-piperazinyl)-2-(methyloxy)phenyl]amino}-1H-pyrrolo[2,3-d]pyrimidin-4-yl)amino]-4,5-difluorobenzamide], the IC50 was 100 to 500 nM. The result for `COc1cc(C2=CCN(C(C)C)CC2)ccc1Nc1nc(Nc2cc(F)ccc2C(N)=O)c2cc[nH]c2n1` [Example 72, 4-fluoro-2-[(2-{[4-[1-(1-methylethyl)-1,2,3,6-tetrahydro-4-pyridinyl]-2-(methyloxy)phenyl]amino}-1H-pyrrolo[2,3-d]pyrimidin-4-yl)amino]benzamide] reads 100 to 500 nM; that for `COc1cc2c(cc1Nc1nc(Nc3ccc(F)c(F)c3C(N)=O)c3cc[nH]c3n1)N(C(=O)CN(C)C)CCC2` [Example 162, 6-[(2-{[1-(N,N-dimethylglycyl)-6-(methyloxy)-1,2,3,4-tetrahydro-7-quinolinyl]amino}-1H-pyrrolo[2,3-d]pyrimidin-4-yl)amino]-2,3-difluorobenzamide], less than 100 nM; that for `COc1cc2c(cc1Nc1nc(Nc3cc(F)cc(F)c3C(=O)NCC(C)C)c3cc[nH]c3n1)N(C(=O)CN(C)C)CC2` [Example 154, 2-[(2-{[1-(N,N-dimethylglycyl)-5-(methyloxy)-2,3-dihydro-1H-indol-6-yl]amino}-1H-pyrrolo[2,3-d]pyrimidin-4-yl)amino]-4,6-difluoro-N-(2-methylpropyl)benzamide], more than 500 nM. To `COc1cc(N2CCC(N3CC[C@H](F)C3)CC2)ccc1Nc1nc(Nc2cccc(F)c2C(N)=O)c2cc[nH]c2n1` [Example 43, 2-fluoro-6-[(2-{[4-{4-[(3S)-3-fluoro-1-pyrrolidinyl]-1-piperidinyl}-2-(methyloxy)phenyl]amino}-1H-pyrrolo[2,3-d]pyrimidin-4-yl)amino]benzamide] belongs 100 to 500 nM; to `CNC(=O)c1c(F)cccc1Nc1nc(Nc2cc3c(cc2OC)CCN3C(=O)CN2CCCC2)nc2[nH]ccc12` [Example 139, 2-fluoro-N-methyl-6-[(2-{[5-(methyloxy)-1-(1-pyrrolidinylacetyl)-2,3-dihydro-1H-indol-6-yl]amino}-1H-pyrrolo[2,3-d]pyrimidin-4-yl)amino]benzamide], 100 to 500 nM. The result for `CCN(CCO)CC(=O)N1CCc2cc(OC)c(Nc3nc(Nc4cccc(F)c4C(N)=O)c4cc[nH]c4n3)cc21` [Example 177, 2-[(2-{[1-[N-ethyl-N-(2-hydroxyethyl)glycyl]-5-(methyloxy)-2,3-dihydro-1H-indol-6-yl]amino}-1H-pyrrolo[2,3-d]pyrimidin-4-yl)amino]-6-fluorobenzamide] reads 100 to 500 nM.

On to `CNCC(=O)N1CCc2cc(OC)c(Nc3nc(Nc4cccc(F)c4C(N)=O)c4cc[nH]c4n3)cc21` [Example 142, 2-fluoro-6-[(2-{[1-(N-methylglycyl)-5-(methyloxy)-2,3-dihydro-1H-indol-6-yl]amino}-1H-pyrrolo[2,3-d]pyrimidin-4-yl)amino]benzamide], for which the IC50 lay within 100 to 500 nM. To `COc1cc2c(cc1Nc1nc(Nc3cccc(F)c3C(N)=O)c3cc[nH]c3n1)CN(C(C)C)CC2` [Example 236, 2-fluoro-6-[(2-{[2-(1-methylethyl)-6-(methyloxy)-1,2,3,4-tetrahydro-7-isoquinolinyl]amino}-1H-pyrrolo[2,3-d]pyrimidin-4-yl)amino]benzamide] belongs 100 to 500 nM; to `COc1cc(N2CCOC[C@@H]2C)ccc1Nc1nc(Nc2cc(F)c(F)cc2C(N)=O)c2cc[nH]c2n1` [Example 105, 4,5-difluoro-2-[(2-{[4-[(3S)-3-methyl-4-morpholinyl]-2-(methyloxy)phenyl]amino}-1H-pyrrolo[2,3-d]pyrimidin-4-yl)amino]benzamide], less than 100 nM; to `CNC(=O)c1c(F)cccc1Nc1nc(Nc2cc3c(cc2OC)CCCN3C(=O)CN(C)C)nc2[nH]ccc12` [Example 212, 2-[(2-{[1-(N,N-dimethylglycyl)-6-(methyloxy)-1,2,3,4-tetrahydro-7-quinolinyl]amino}-1H-pyrrolo[2,3-d]pyrimidin-4-yl)amino]-6-fluoro-N-methylbenzamide], 100 to 500 nM.
